Assays:
Assay in all cases: Carna kinome panel
Assay type in all cases: biochemical
Conditions in all cases: read-out: % Inhibition at 10 μM of the test compound
SGK3 = SGK3 (Homo sapiens (Human), UniProt Q96BR1)
BRSK2 = BRSK2 (Homo sapiens (Human), UniProt Q8IWQ3)
NEK7 = NEK7 (Homo sapiens (Human), UniProt Q8TDX7)
FGR = FGR (Homo sapiens (Human), UniProt P09769)
TIE2 = TIE2 (Homo sapiens (Human), UniProt Q02763)
PKCε = PKCε (Homo sapiens (Human), UniProt Q02156)
MARK4 = MARK4 (Homo sapiens (Human), UniProt Q96L34)
TAK1-TAB1_Cascade = TAK1-TAB1_Cascade (Homo sapiens (Human), UniProt O43318)
ALK(L1196M) = ALK(L1196M) (Homo sapiens (Human), UniProt Q9UM73, L1196M)
WNK2 = WNK2 (Homo sapiens (Human), UniProt Q9Y3S1)
MAP2K5_Cascade = MAP2K5_Cascade (Homo sapiens (Human), UniProt Q13163)
TNIK = TNIK (Homo sapiens (Human), UniProt Q9UKE5)
PKCη = PKCη (Homo sapiens (Human), UniProt P24723)
Erk5 = Erk5 (Homo sapiens (Human), UniProt Q13164)
CSK = CSK (Homo sapiens (Human), UniProt P41240)
MSK1 = MSK1 (Homo sapiens (Human), UniProt O75582)
MELK = MELK (Homo sapiens (Human), UniProt Q14680)
SYK = SYK (Homo sapiens (Human), UniProt P43405)
PAK6 = PAK6 (Homo sapiens (Human), UniProt Q9NQU5)
EML4-ALK = EML4-ALK (Homo sapiens (Human), UniProt Q9UM73)
skMLCK = skMLCK (Homo sapiens (Human), UniProt Q9H1R3)
CK1ε = CK1ε (Homo sapiens (Human), UniProt P49674)
RET(M918T) = RET(M918T) (Homo sapiens (Human), UniProt P07949, M918T)
JNK3 = JNK3 (Homo sapiens (Human), UniProt P53779)
AurC = AurC (Homo sapiens (Human), UniProt Q9UQB9)
DYRK1B = DYRK1B (Homo sapiens (Human), UniProt Q9Y463)
Procedure: (§1) Briefly, a selection of compounds was screened against a panel of kinases at a single concentration of 10 μM. […] This was completed using one of two assays, depending on the kinase being examined: 1) IMAP Assay. A solution of 4× inhibitor, 4× substrate/ATP/metal solution and 2× kinase solution was prepared with assay buffer (20 mM HEPES, 0.01% Tween-20, 2 mM DTT, pH 7.4) and mixed, then incubated in 384-well black plates for 1 hour at room temperature. The IMAP binding reagent (IMAP Screening Express kit; Molecular Devices) was added to each well and incubated for 30 minutes. […] 2) Off-Chip Mobility Shift Assay (MSA). A solution of 4× inhibitor, 4× substrate/ATP/metal solution and 2× kinase solution was prepared with assay buffer (20 mM HEPES, 0.01% Triton X-100, 2 mM DTT, pH 7.5) and mixed, then incubated in 384-well plates for 1 or 5 hours depending on the kinase, at room temperature. Termination buffer (QuickScout Screening assist MSA; Carna Biosciences) was added to each well. The entire reaction mixture was then applied to a LabChip3000 system (Caliper Life Science), and the product and substrate peptide peaks were separated and quantified. […] The entire reaction mixture was then applied to a LabChip3000 system (Caliper Life Science), and the product and substrate peptide peaks were separated and quantified.

KIT(D816E) = KIT(D816E) (Homo sapiens (Human), UniProt P10721, D816E)
ARG = ARG (Homo sapiens (Human), UniProt P42684)
CaMK1δ = CaMK1δ (Homo sapiens (Human), UniProt Q8IU85)
AMPKα1/β1/γ1 = AMPKα1/β1/γ1 (Homo sapiens (Human), UniProt Q13131)
LYNa = LYNa (Homo sapiens (Human), UniProt P07948)
MARK3 = MARK3 (Homo sapiens (Human), UniProt P27448)
EGFR = EGFR (Homo sapiens (Human), UniProt P00533)
MET(D1228H) = MET(D1228H) (Homo sapiens (Human), UniProt P08581, D1228H)
QIK = QIK (Homo sapiens (Human), UniProt Q9H0K1)
NEK4 = NEK4 (Homo sapiens (Human), UniProt P51957)
EGFR(L858R) = EGFR(L858R) (Homo sapiens (Human), UniProt P00533, L858R)
EPHA7 = EPHA7 (Homo sapiens (Human), UniProt Q15375)
EPHA6 = EPHA6 (Homo sapiens (Human), UniProt Q9UF33)
Procedure: as §1

ACK = ACK (Homo sapiens (Human), UniProt Q07912)

MARK3, sequence (P27448 whole entry): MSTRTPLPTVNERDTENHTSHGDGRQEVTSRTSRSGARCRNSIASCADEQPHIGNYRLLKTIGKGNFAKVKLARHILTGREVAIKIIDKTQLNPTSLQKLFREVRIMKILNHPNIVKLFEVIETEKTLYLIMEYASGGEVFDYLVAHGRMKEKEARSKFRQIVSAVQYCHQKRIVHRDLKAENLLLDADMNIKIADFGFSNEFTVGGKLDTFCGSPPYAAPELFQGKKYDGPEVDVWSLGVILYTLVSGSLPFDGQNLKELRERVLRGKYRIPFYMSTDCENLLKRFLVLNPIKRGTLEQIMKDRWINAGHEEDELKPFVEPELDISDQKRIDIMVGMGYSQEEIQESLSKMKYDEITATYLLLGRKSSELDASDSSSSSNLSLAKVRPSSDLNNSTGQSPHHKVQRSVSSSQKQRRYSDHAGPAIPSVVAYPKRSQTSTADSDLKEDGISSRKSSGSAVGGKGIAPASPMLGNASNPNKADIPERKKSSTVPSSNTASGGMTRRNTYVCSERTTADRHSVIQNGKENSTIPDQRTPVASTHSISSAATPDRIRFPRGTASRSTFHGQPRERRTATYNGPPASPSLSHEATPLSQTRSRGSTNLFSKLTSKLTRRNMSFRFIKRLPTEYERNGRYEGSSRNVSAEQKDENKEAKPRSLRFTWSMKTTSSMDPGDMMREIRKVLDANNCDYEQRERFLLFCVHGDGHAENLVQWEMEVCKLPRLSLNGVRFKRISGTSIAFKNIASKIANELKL
PKCη, sequence (P24723 whole entry): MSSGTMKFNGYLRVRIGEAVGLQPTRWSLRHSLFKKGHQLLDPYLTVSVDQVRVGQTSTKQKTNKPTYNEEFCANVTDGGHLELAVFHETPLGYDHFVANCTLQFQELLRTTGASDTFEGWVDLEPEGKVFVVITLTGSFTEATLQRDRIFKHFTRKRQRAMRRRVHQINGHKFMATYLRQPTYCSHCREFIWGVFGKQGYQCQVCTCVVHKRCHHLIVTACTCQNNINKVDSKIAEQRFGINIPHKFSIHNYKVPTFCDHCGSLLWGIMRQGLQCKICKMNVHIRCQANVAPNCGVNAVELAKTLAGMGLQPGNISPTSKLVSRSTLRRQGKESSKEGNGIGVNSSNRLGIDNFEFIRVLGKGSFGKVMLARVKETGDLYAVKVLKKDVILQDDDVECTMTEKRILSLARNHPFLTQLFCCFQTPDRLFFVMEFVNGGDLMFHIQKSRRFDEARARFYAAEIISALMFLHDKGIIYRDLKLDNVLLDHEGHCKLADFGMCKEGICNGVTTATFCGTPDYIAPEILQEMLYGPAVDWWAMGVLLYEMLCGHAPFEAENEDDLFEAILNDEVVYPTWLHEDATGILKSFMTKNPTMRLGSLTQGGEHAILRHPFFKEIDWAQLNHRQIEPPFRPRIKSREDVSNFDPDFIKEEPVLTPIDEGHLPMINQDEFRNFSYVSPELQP
EGFR(L858R), sequence (P00533 25-1210 L858R): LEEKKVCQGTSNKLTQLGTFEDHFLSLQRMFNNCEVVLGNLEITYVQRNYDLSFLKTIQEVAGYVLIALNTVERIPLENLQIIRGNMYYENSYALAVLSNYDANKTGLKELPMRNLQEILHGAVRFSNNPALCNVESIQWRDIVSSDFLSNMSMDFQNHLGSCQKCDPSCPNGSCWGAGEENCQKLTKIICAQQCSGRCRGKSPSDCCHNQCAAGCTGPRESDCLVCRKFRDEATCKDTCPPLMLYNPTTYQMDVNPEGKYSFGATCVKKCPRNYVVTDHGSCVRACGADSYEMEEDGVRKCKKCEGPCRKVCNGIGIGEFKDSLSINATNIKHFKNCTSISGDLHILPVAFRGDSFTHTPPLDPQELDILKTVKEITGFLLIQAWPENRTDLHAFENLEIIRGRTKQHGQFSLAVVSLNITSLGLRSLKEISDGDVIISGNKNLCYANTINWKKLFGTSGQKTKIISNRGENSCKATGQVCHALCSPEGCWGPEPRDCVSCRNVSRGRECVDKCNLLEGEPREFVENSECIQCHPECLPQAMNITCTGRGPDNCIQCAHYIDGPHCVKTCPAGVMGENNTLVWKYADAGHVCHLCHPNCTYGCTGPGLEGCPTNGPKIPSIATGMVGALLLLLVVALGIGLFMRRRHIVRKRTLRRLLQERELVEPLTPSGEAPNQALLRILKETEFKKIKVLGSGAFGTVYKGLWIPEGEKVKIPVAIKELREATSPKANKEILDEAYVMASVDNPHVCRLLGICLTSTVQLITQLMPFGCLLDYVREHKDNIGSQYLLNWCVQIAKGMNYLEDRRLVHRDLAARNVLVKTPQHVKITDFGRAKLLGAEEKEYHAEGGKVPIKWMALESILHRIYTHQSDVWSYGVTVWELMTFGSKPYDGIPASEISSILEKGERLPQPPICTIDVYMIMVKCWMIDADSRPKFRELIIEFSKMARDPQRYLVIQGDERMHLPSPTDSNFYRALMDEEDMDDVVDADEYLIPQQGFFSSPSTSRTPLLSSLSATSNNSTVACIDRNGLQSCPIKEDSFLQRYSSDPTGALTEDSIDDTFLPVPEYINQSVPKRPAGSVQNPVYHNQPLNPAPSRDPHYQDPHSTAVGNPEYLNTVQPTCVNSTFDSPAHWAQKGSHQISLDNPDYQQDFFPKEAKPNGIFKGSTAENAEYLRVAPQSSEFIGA
CK1ε, sequence (P49674 whole entry): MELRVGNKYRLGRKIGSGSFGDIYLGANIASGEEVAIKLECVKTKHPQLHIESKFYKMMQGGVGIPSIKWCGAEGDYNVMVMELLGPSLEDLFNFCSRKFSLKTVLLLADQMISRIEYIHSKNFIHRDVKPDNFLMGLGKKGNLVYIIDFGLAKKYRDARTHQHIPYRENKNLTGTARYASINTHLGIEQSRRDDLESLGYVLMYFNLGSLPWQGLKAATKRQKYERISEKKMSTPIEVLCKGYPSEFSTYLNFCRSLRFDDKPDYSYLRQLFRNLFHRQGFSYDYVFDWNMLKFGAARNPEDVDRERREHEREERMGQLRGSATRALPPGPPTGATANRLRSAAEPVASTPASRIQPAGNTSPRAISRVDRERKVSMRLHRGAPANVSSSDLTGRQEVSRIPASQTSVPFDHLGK
EGFR, sequence (P00533 25-1210): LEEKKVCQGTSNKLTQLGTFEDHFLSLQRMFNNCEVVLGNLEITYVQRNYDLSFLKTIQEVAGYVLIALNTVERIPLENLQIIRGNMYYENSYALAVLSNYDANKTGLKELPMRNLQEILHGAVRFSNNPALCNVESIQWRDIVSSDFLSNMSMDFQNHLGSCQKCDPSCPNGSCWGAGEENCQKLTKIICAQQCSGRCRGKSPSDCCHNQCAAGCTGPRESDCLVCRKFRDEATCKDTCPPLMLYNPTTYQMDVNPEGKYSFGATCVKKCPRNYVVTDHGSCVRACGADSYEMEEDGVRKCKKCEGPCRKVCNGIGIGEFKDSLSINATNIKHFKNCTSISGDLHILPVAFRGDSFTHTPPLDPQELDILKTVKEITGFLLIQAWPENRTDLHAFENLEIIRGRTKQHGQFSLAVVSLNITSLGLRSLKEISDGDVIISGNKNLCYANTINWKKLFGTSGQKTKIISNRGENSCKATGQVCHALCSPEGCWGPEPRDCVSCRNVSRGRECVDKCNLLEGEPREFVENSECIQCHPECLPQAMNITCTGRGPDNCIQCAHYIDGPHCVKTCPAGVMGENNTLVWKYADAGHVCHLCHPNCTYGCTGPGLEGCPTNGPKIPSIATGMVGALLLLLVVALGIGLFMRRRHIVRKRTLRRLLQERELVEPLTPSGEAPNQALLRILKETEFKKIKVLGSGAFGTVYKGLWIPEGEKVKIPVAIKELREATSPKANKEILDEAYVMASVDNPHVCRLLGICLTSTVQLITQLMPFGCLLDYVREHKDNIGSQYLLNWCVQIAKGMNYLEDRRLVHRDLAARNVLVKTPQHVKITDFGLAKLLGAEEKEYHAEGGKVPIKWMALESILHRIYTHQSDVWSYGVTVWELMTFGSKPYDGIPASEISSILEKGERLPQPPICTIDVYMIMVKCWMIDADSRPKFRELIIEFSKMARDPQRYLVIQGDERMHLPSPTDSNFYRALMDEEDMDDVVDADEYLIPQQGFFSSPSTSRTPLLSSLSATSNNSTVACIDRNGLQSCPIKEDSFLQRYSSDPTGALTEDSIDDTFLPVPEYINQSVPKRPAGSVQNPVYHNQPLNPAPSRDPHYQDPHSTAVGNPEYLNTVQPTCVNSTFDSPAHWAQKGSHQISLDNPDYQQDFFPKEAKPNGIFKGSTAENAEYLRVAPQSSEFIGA
TAK1-TAB1_Cascade, sequence (O43318 other isoform, or with tags, fused parts or gaps): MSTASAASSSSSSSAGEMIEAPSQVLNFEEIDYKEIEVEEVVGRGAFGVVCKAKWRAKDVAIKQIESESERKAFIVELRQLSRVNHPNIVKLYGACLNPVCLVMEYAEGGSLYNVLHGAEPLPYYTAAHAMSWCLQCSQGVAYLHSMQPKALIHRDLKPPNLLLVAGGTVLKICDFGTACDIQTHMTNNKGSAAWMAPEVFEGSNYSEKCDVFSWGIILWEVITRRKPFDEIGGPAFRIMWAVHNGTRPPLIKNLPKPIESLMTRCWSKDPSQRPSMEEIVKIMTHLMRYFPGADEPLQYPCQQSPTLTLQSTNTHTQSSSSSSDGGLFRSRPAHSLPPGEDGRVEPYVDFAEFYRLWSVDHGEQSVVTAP
CaMK1δ, sequence (Q8IU85 whole entry): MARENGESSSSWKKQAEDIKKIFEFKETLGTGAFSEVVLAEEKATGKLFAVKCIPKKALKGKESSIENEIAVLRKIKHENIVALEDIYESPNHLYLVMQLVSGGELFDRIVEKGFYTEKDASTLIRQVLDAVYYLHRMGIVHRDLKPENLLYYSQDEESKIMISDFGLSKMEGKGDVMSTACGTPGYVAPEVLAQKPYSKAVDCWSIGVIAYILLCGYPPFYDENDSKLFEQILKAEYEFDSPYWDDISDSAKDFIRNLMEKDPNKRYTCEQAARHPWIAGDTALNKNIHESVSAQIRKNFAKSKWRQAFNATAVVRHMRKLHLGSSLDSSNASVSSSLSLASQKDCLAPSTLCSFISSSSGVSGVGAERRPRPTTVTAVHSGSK

## CCC1(c2ccccc2)C2=C(CC(C)(C)CC2=O)Nc2ncsc21 (stereo not shown) [Compound 1, 9-Ethyl-6,6-dimethyl-9-phenyl-5,6,7,9-tetrahydrothiazolo[4,5-b]quinolin-8(4H)-one]
SGK3
  inhibition at 10 µM: -2.3%
BRSK2
  inhibition at 10 µM: -2.9%
NEK7
  inhibition at 10 µM: -3.9%
FGR
  inhibition at 10 µM: 10.6%
TIE2
  inhibition at 10 µM: 11.1%
PKCε
  inhibition at 10 µM: -0.7%
MARK4
  inhibition at 10 µM: -15.7%
TAK1-TAB1_Cascade
  inhibition at 10 µM: 8%
ALK(L1196M)
  inhibition at 10 µM: -5.2%
WNK2
  inhibition at 10 µM: 0.5%
MAP2K5_Cascade
  inhibition at 10 µM: 4.3%
TNIK
  inhibition at 10 µM: 8.6%
PKCη
  inhibition at 10 µM: 9.3%
Erk5
  inhibition at 10 µM: -0.6%
CSK
  inhibition at 10 µM: 6.1%
MSK1
  inhibition at 10 µM: -1%
MELK
  inhibition at 10 µM: 1.6%
SYK
  inhibition at 10 µM: -5.8%
PAK6
  inhibition at 10 µM: 3.9%
EML4-ALK
  inhibition at 10 µM: 2.9%
skMLCK
  inhibition at 10 µM: 9.7%
CK1ε
  inhibition at 10 µM: 3.1%
RET(M918T)
  inhibition at 10 µM: 0.6%
JNK3
  inhibition at 10 µM: 3.1%
AurC
  inhibition at 10 µM: 8.5%
DYRK1B
  inhibition at 10 µM: -18.1%
KIT(D816E)
  inhibition at 10 µM: -0.2%
ARG
  inhibition at 10 µM: -0.6%
CaMK1δ
  inhibition at 10 µM: 1.3%
AMPKα1/β1/γ1
  inhibition at 10 µM: 7.6%
LYNa
  inhibition at 10 µM: 6%
MARK3
  inhibition at 10 µM: -3.3%
EGFR
  inhibition at 10 µM: 21.2%
MET(D1228H)
  inhibition at 10 µM: -7.7%
QIK
  inhibition at 10 µM: 6.9%
NEK4
  inhibition at 10 µM: -2.5%
EGFR(L858R)
  inhibition at 10 µM: 22.2%
EPHA7
  inhibition at 10 µM: 33.9%
EPHA6
  inhibition at 10 µM: 21.3%
ACK
  inhibition at 10 µM: -4.1%
